Test results reported in patent US20260125382A1, “COMPOUNDS FOR INHIBITING OR DEGRADING CDK2 AND/OR CDK9 AND MEDICINAL USE THEREOF” (KOREA RESEARCH INSTITUTE OF CHEMICAL TECHNOLOGY, priority 2022, published 2026).

What was measured:
[1] = target: T1, CDK2 (Homo sapiens, UniProt P24941); assay: CDK protein degradation activity (Western blotting), CDK2; format: cell-based; conditions: MDA-MB-231 cells, 16 hours, Western blot
T1 construct: endogenous in cells; host or cells: MDA-MB-231
Method in brief: (§1)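 Seed MDA-MB-231 cells; next day add compound to 100 nM, 1 μM or 10 μM final, or DMSO. After 16 h, harvest and lyse in Triton X-100 buffer, run SDS-PAGE, probe for CDK2, CDK9 and tubulin.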

[2] = target: T2, CDK9 (Homo sapiens, UniProt P50750); assay: CDK protein degradation activity (Western blotting), CDK9; format: cell-based; conditions: MDA-MB-231 cells, 16 hours, Western blot
T2 construct: endogenous in cells; host or cells: MDA-MB-231
Method in brief: as §1

T2 sequence (P50750 whole entry): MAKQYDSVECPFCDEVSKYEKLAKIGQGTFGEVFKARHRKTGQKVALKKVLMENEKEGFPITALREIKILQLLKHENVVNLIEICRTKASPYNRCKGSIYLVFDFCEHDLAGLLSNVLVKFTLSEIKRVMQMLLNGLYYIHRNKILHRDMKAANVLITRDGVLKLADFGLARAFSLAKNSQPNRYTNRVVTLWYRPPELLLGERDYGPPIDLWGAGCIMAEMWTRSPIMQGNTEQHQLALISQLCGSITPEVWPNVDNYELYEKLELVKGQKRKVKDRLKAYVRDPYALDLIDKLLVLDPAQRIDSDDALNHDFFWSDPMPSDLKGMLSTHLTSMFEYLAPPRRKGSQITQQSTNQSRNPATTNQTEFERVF

Structure (SMILES) | Enzyme degradation CDK2 (% remaining) @ 0.1 μM [1] | Enzyme degradation CDK2 (% remaining) @ 1 μM [1] | Enzyme degradation CDK2 (% remaining) @ 10 μM [1] | Enzyme degradation CDK9 (% remaining) @ 0.1 μM [2] | Enzyme degradation CDK9 (% remaining) @ 1 μM [2] | Enzyme degradation CDK9 (% remaining) @ 10 μM [2]
O=C1CC[C@H](N2C(=O)c3ccc(N4CC(C(=O)N5CCC(CN6CCC(CCNc7ncnc8c7ncn8C7CC(NC(=O)c8c(Cl)cccc8Cl)C7)CC6)CC5)C4)cc3C2=O)C(=O)N1 (stereo partly drawn) [Compound 399, 2,6-dichloro-N-((1s,3s)-3-(6-((2-(1-((1-(1-(2-(2,6-dioxopiperidin-3-yl)-1,3-dioxoisoindolin-5-yl)azetidin-3-carbonyl)piperidin-4-yl)methyl)piperidin-4-yl)ethyl)amino)-9H-purin-9-yl)cyclobutyl)benzamide] | 30% | 40% | 40% | 0/0/0% | 0/0/0% | 0/0/0%
O=C1CCC(N2C(=O)c3ccc(N4CCC(C(=O)N5CCC(CN6CCC(CCNc7ncnc8c7ncn8[C@H]7C[C@@H](NC(=O)c8c(Cl)cccc8Cl)C7)CC6)CC5)CC4)cc3C2=O)C(=O)N1 (stereo partly drawn) [Compound 400, 2,6-dichloro-N-((1s,3s)-3-(6-((2-(1-((1-(1-(2-(2,6-dioxopiperidin-3-yl)-1,3-dioxoisoindolin-5-yl)piperidin-4-carbonyl)piperidin-4-yl)methyl)piperidin-4-yl)ethyl)amino)-9H-purin-9-yl)cyclobutyl)benzamide] | 30% | 30% | 40% | 0/0/0% | 0/0/0% | 0/0/0%
Cc1cccc(C(=O)N[C@H]2C[C@@H](n3cnc4c(Nc5ccc(N6CCN(CC7CCN(C(=O)C8CN(c9ccc%10c(c9)C(=O)N([C@H]9CCC(=O)NC9=O)C%10=O)C8)CC7)CC6)cc5)ncnc43)C2)n1 [Compound 401, N-((1s,3s)-3-(6-((4-(4-((1-(1-(2-(2,6-dioxopiperidin-3-yl)-1,3-dioxoisoindolin-5-yl)azetidin-3-carbonyl)piperidin-4-yl)methyl)piperazin-1-yl)phenyl)amino)-9H-purin-9-yl)cyclobutyl)-6-methylpicolinamide] | 30% | 20% | 20% | 0/0/0% | 0/0/0% | 0/0/0%
Cc1cccc(C(=O)NC2CC(n3cnc4c(NCCC5CCN(CC6CCN(CC7CN(c8ccc9c(c8)C(=O)N([C@H]8CCC(=O)NC8=O)C9=O)C7)CC6)CC5)ncnc43)C2)n1 (stereo partly drawn) [Compound 402, N-((1s,3s)-3-(6-((2-(1-((1-((1-(2-(2,6-dioxopiperidin-3-yl)-1,3-dioxoisoindolin-5-yl)azetidin-3-yl)methyl)piperidin-4-yl)methyl)piperidin-4-yl)ethyl)amino)-9H-purin-9-yl)cyclobutyl)-6-methylpicolinamide] | 70% | 50% | 50% | 0/0/0% | 0/0/0% | 0/0/0%
Cc1cccc(C(=O)NC2CC(n3cnc4c(Nc5ccc(N6CCN(C7CC8(CCN(C(=O)C9CCN(c%10ccc%11c(c%10)C(=O)N([C@H]%10CCC(=O)NC%10=O)C%11=O)CC9)CC8)C7)CC6)cc5)ncnc43)C2)n1 (stereo partly drawn) [Compound 403, N-((1s,3s)-3-(6-((4-(4-(7-(1-(2-(2,6-dioxopiperidin-3-yl)-1,3-dioxoisoindolin-5-yl)piperidin-4-carbonyl)-7-azaspiro[3.5]nonan-2-yl)piperazin-1-yl)phenyl)amino)-9H-purin-9-yl)cyclobutyl)-6-methylpicolinamide] | 60% | 60% | 90% | 0/0/0% | 0/0/0% | 0/0/0%
O=C1CC[C@H](N2C(=O)c3ccc(N4CCC(CCN5CCN(c6ccc(Nc7ncnc8c7ncn8[C@H]7C[C@@H](NC(=O)c8c(Cl)cccc8Cl)C7)cc6)CC5)CC4)cc3C2=O)C(=O)N1 [Compound 405, 2,6-dichloro-N-((1s,3s)-3-(6-((4-(4-(2-(1-(2-(2,6-dioxopiperidin-3-yl)-1,3-dioxoisoindolin-5-yl)piperidin-4-yl)ethyl)piperazin-1-yl)phenyl)amino)-9H-purin-9-yl)cyclobutyl)benzamide] | 50/50/50% | 50/50/50% | 50/50/50% | 0/0/0% | 0/0/0% | 0/0/0%
O=C1CC[C@H](N2C(=O)c3cc(F)c(N4CCC(CCN5CCN(c6ccc(Nc7ncnc8c7ncn8C7CC(NC(=O)c8c(Cl)cccc8Cl)C7)cc6)CC5)CC4)cc3C2=O)C(=O)N1 (stereo partly drawn) [Compound 406, 2,6-dichloro-N-((1s,3s)-3-(6-((4-(4-(2-(1-(2-(2,6-dioxopiperidin-3-yl)-6-fluoro-1,3-dioxoisoindolin-5-yl)piperidin-4-yl)ethyl)piperazin-1-yl)phenyl)amino)-9H-purin-9-yl)cyclobutyl)benzamide] | 30/30/30% | 30/30/30% | 30/30/30% | 0/0/0% | 0/0/0% | 0/0/0%

Next, values leading:

Enzyme degradation CDK2 (% remaining) @ 0.1 μM [1] | Enzyme degradation CDK2 (% remaining) @ 1 μM [1] | Enzyme degradation CDK2 (% remaining) @ 10 μM [1] | Enzyme degradation CDK9 (% remaining) @ 0.1 μM [2] | Enzyme degradation CDK9 (% remaining) @ 1 μM [2] | Enzyme degradation CDK9 (% remaining) @ 10 μM [2] | Structure (SMILES)
60/60/60% | 60/60/60% | 60/60/60% | 0/0/0% | 0/0/0% | 0/0/0% | O=C1CCC(n2nnc3ccc(N4CCC(CCN5CCN(c6ccc(Nc7ncnc8c7ncn8[C@H]7C[C@@H](NC(=O)c8c(Cl)cccc8Cl)C7)cc6)CC5)CC4)cc3c2=O)C(=O)N1 (stereo partly drawn) [Compound 407, 2,6-dichloro-N-((1s,3s)-3-(6-((4-(4-(2-(1-(3-(2,6-dioxopiperidin-3-yl)-4-oxo-3,4-dihydrobenzo[d][1,2,3]triazin-6-yl)piperidin-4-yl)ethyl)piperazin-1-yl)phenyl)amino)-9H-purin-9-yl)cyclobutyl)benzamide]
40% | 30% | 30% | 20% | 10% | 10% | O=C1CC[C@H](N2C(=O)c3ccc(CCCCN4CCC(N5CCN(c6ccc(Nc7ncnc8c7ncn8C7CC(NC(=O)Cc8ccccc8)C7)cc6)CC5)CC4)cc3C2=O)C(=O)N1 (stereo partly drawn) [Compound 408, N-((1s,3s)-3-(6-((4-(4-(1-(4-(2-(2,6-dioxopiperidin-3-yl)-1,3-dioxoisoindolin-5-yl)butyl)piperidin-4-yl)piperazin-1-yl)phenyl)amino)-9H-purin-9-yl)cyclobutyl)-2-phenylacetamide]
70% | 40% | 40% | 70% | 50% | 10% | O=C1CCC(N2C(=O)c3cc(F)c(N4CCC(CN5CCC(CCNc6ncnc7c6ncn7[C@H]6C[C@@H](NC(=O)Cc7ccccc7)C6)CC5)CC4)cc3C2=O)C(=O)N1 (stereo partly drawn) [Compound 409, N-((1s,3s)-3-(6-((2-(1-((1-(2-(2,6-dioxopiperidin-3-yl)-6-fluoro-1,3-dioxoisoindolin-5-yl)piperidin-4-yl)methyl)piperidin-4-yl)ethyl)amino)-9H-purin-9-yl)cyclobutyl)-2-phenylacetamide]
30% | 20% | 20% | 30% | 20% | 20% | O=C1CC[C@H](n2nnc3ccc(N4CCC(CN5CCC(CCNc6ncnc7c6ncn7C6CC(NC(=O)Cc7ccccc7)C6)CC5)CC4)cc3c2=O)C(=O)N1 (stereo partly drawn) [Compound 410, N-((1s,3s)-3-(6-((2-(1-((1-(3-(2,6-dioxopiperidin-3-yl)-4-oxo-3,4-dihydrobenzo[d][1,2,3]triazin-6-yl)piperidin-4-yl)methyl)piperidin-4-yl)ethyl)amino)-9H-purin-9-yl)cyclobutyl)-2-phenylacetamide]
40/40/40% | 40/40/40% | 40/40/40% | 10/10/10% | 10/10/10% | 10/10/10% | O=C1CC[C@H](N2C(=O)c3ccc(N4CC(C(=O)N5CCC(CN6CCC(CCNc7ncnc8c7ncn8[C@H]7C[C@@H](NC(=O)Cc8ccccc8)C7)CC6)CC5)C4)cc3C2=O)C(=O)N1 [Compound 411, N-((1s,3s)-3-(6-((2-(1-((1-(1-(2-(2,6-dioxopiperidin-3-yl)-1,3-dioxoisoindolin-5-yl)azetidin-3-carbonyl)piperidin-4-yl)methyl)piperidin-4-yl)ethyl)amino)-9H-purin-9-yl)cyclobutyl)-2-phenylacetamide]
